{
  "source": "patent US9856196B2",
  "about": "“Agent for reduction of sensory irritation” (Kao Corporation, priority 2012, dated 2018)",
  "key": {"human TRPA1": {"target": "human TRPA1 (Homo sapiens, UniProt O75762)", "sequence (O75762 whole entry)": "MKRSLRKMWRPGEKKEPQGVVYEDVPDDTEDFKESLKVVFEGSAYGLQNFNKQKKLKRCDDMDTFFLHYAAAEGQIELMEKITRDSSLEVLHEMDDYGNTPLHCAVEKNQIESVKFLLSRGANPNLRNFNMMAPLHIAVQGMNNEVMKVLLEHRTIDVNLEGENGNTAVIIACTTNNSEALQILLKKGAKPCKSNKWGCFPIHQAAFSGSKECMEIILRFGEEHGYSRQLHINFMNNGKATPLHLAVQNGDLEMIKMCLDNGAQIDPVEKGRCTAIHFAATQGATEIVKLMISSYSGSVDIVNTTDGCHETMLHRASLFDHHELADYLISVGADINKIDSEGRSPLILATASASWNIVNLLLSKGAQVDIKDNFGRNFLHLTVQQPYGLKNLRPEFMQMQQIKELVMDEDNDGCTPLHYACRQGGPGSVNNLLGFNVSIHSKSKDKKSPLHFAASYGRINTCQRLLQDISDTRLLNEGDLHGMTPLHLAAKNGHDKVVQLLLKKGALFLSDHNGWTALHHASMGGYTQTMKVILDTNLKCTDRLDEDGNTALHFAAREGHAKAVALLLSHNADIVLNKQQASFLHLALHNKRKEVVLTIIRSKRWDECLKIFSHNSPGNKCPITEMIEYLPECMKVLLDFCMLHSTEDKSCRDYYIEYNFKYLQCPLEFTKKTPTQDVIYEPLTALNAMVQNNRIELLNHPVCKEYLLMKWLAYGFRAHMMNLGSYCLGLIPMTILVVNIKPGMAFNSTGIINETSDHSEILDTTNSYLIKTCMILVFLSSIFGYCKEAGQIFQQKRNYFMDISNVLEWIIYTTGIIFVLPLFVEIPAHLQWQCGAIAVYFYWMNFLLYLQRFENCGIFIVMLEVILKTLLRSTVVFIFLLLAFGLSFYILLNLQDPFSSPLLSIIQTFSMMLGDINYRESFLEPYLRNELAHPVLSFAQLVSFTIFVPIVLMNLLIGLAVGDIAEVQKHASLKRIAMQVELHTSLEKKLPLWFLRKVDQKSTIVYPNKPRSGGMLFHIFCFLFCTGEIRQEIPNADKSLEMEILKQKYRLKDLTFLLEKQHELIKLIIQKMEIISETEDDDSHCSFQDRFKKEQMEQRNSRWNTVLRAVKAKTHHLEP", "assay": "Calcium imaging of TRPA1 activation in human TRPA1 stably expressing HEK293 cells", "conditions": "for TRPA1 activation caused by antiseptics and antiseptic aids: phenoxyethanol 20 to 30 mM, IPBC 0.03 to 0.1 mM, triclosan 0.1 to 0.3 mM, benzyl alcohol 20 to 30 mM, FIG. 3", "source_text": "(1) Preparation of Human TRPA1 Stably Expressing Cell Line\nThe human TRPA1 gene of which the full length is inserted into pENTR223.1 was purchased from Open Biosystems. The TRPA1 gene was sub-cloned into an expression vector pcDNA3.2-V5/DEST (Invitrogen) and transfected into HEK293 cells using Lipofectamine 2000 (Invitrogen).\n(3) Evaluation of the Inhibitory Effect on TRPA1 Activation Caused by AITC"}, "[1]": {"assay": "Inhibitory effect on irritating odor (ammonia odor, panel evaluation)", "format": "in vivo", "conditions": "for ammonia odor (irritating odor) score, average: 7-stage scale 0 to 6", "method": "Ammonia was volatilized and saturated by putting a cotton ball impregnated with a 28% ammonia water (20 μl) in a 50 ml syringe for 12 hours or more. The intensity of ammonia odor (irritating odor) was evaluated using a 7-stage scale (0 to 6). Comparative evaluation was carried out without sniffing the test perfume.\n(2) Evaluation scale 0; No irritating odor, 1; very faint, 2: faint, 3; easily noticeable, 4; strong, 5; very strong, 6; extremely strong"}, "human skin": {"test_system": "human skin", "assay": "Sensory irritation property to antiseptic on human skin (discomfort score, sensitive women)", "format": "in vivo", "conditions": "antiseptic solution (0.2% methylparaben + 0.35% phenoxyethanol) + 0.05% Compound 1 on face, versus antiseptic solution alone; maximum score, scale 0.0-3.0; FIG. 4", "method": "(1) Selection of Test Subjects\nTo evaluate the skin sensory irritation, 22 women (age 20 to 59) having high sensitivity (1% lactic acid-sensitive, low current perception threshold and sensitive skin conscious with medical history of allergic disease) were selected as the subjects.\n(2) Evaluation of Sensory Irritation Property to Antiseptic\nAfter washing the face, the subjects entered a constant temperature-humidity room (room temperature 20° C., humidity about 50%) and were acclimated for 20 minutes, followed by applying 300 ill of distilled water heated to 37° C. in one side of the face from the cheek to the nose. 1, 2.5, 5 and 8 minutes after the application, the degree (intensity) of unpleasant sensation (pain) reported in accordance with the following unpleasant sensation reference values was notated.\n0.0; None or pleasant sensation\n0.5; Slight discomfort barely detectable\n1.0; Mild discomfort, detectable sensation but tolerable\n1.5; Mild to moderate discomfort\n2.0; Moderate discomfort, unpleasant feeling but tolerable\n2.5; Moderate to severe discomfort\n3.0; Severe discomfort, intense unpleasant feeling\nThe distilled water was wiped off 8 minutes later, 300 μl of an antiseptic solution (0.2% methylparaben (MP)+0.35% phenoxyethanol (Phe) aqueous solution) was applied to the same part to notate the degrees of unpleasant sensation in the same manner. […]"}, "[2]": {"conditions": "HEK293, read-out: Ratio for TRPA1 inhibition (%), 10 μM AITC, test material 100 μM"}, "[3]": {"conditions": "HEK293, read-out: Ratio for TRPA1 inhibition (%), 5.0 μM AITC, test material 100 μM"}},
  "note": "Where two headings read alike, the source gives them in different places.",
  "data": [
    {"compound": "CC(CCCO)c1ccccc1", "note": "(stereo not drawn) [Comparative Compound 1, 4-phenyl-1-pentanol, reference compound]", "values": [
      {"measurement": "inhibition at 100 µM", "setting": "human TRPA1; [2]", "result": 0, "unit": "%"}
    ]},
    {"compound": "OCCCCc1ccccc1", "note": "[Comparative Compound 2, 4-phenyl-1-butanol, reference compound]", "values": [
      {"measurement": "inhibition at 100 µM", "setting": "human TRPA1; [3]", "result": 0, "unit": "%"},
      {"measurement": "inhibition at 100 µM", "setting": "human TRPA1; [2]", "result": 0.8, "unit": "%"}
    ]},
    {"compound": "CC(CO)CC(C)c1ccccc1", "note": "(stereo not drawn) [Compound 1, 2-methyl-4-phenyl-1-pentanol]", "values": [
      {"measurement": "ammonia odor (irritating odor) score, average", "setting": "[1]; 1 minute later", "result": 2},
      {"measurement": "ammonia odor (irritating odor) score, average", "setting": "[1]; 2 minutes later", "result": 2},
      {"measurement": "ammonia odor (irritating odor) score, average", "setting": "[1]; 5 minutes later", "result": 2},
      {"measurement": "ammonia odor (irritating odor) score, average", "setting": "[1]; 6 minutes later", "result": 3},
      {"measurement": "ammonia odor (irritating odor) score, average", "setting": "[1]; 10 minutes later", "result": 3},
      {"measurement": "ammonia odor (irritating odor) score, average", "setting": "[1]; Immediately after inhalation of test perfume, five panelists", "result": 1},
      {"measurement": "time the ammonia odor reducing effect was maintained after the inhalation", "setting": "[1]; after 1 minute sniffing of test perfume", "result": 5, "unit": "min"},
      {"measurement": "discomfort (pain) score", "setting": "human skin", "result": "reduced"}
    ]},
    {"compound": "CCC(C=C(C)CO)c1ccccc1", "note": "(stereo not drawn) [Compound 5, 2-methyl-4-phenyl-2-hexen-1-ol]", "values": [
      {"measurement": "inhibition at 100 µM", "setting": "human TRPA1; [3]", "result": 83.4, "unit": "%"},
      {"measurement": "inhibition at 100 µM", "setting": "human TRPA1; [2]", "result": 27.6, "unit": "%"}
    ]},
    {"compound": "CCC(CC(C)CO)c1ccccc1", "note": "(stereo not drawn) [Compound 6, 2-methyl-4-phenyl-1-hexanol]", "values": [
      {"measurement": "inhibition at 100 µM", "setting": "human TRPA1; [3]", "result": 18.7, "unit": "%"},
      {"measurement": "inhibition at 100 µM", "setting": "human TRPA1; [2]", "result": 9.7, "unit": "%"}
    ]},
    {"compound": "CC/C(=C\\C(CC)c1ccccc1)CO", "note": "(stereo not drawn) [Compound 7, (E)-2-ethyl-4-phenyl-2-hexen-1-ol]", "values": [
      {"measurement": "IC50", "setting": "human TRPA1", "result": 3.4, "unit": "µM"},
      {"measurement": "inhibition at 100 µM", "setting": "human TRPA1; [3]", "result": 103, "unit": "%"},
      {"measurement": "inhibition at 100 µM", "setting": "human TRPA1; [2]", "result": 102, "unit": "%"}
    ]},
    {"compound": "CC/C(=C/C(CC)c1ccccc1)CO", "note": "(stereo not drawn) [Compound 8, (Z)-2-ethyl-4-phenyl-2-hexen-1-ol]", "values": [
      {"measurement": "IC50", "setting": "human TRPA1", "result": 2, "unit": "µM"},
      {"measurement": "inhibition at 100 µM", "setting": "human TRPA1; [3]", "result": 102, "unit": "%"},
      {"measurement": "inhibition at 100 µM", "setting": "human TRPA1; [2]", "result": 101, "unit": "%"}
    ]},
    {"compound": "CC(CO)C(C)Cc1ccccc1", "note": "(stereo not drawn) [Compound 9, 2,3-dimethyl-4-phenyl-1-butanol]", "values": [
      {"measurement": "inhibition at 100 µM", "setting": "human TRPA1; [3]", "result": 89.5, "unit": "%"},
      {"measurement": "inhibition at 100 µM", "setting": "human TRPA1; [2]", "result": 51.7, "unit": "%"}
    ]},
    {"compound": "C/C(=C\\C(C)c1ccccc1)CO", "note": "(stereo not drawn) [Compound 10, (E)-2-methyl-4-phenyl-2-penten-1-ol]", "values": [
      {"measurement": "IC50", "setting": "human TRPA1", "result": 32.5, "unit": "µM"},
      {"measurement": "inhibition at 100 µM", "setting": "human TRPA1; [3]", "result": 92.9, "unit": "%"},
      {"measurement": "inhibition at 100 µM", "setting": "human TRPA1; [2]", "result": 31.8, "unit": "%"}
    ]},
    {"compound": "CC(CO)CCc1ccccc1", "note": "(stereo not drawn) [Compound 11, 2-methyl-4-phenyl-1-butanol]", "values": [
      {"measurement": "inhibition at 100 µM", "setting": "human TRPA1; [3]", "result": 19.5, "unit": "%"},
      {"measurement": "inhibition at 100 µM", "setting": "human TRPA1; [2]", "result": 3.9, "unit": "%"}
    ]},
    {"compound": "CC(CC(C)C(C)O)c1ccccc1", "note": "(stereo not drawn) [Compound 12, 3-methyl-5-phenyl-2-hexanol]", "values": [
      {"measurement": "inhibition at 100 µM", "setting": "human TRPA1; [3]", "result": 54.9, "unit": "%"},
      {"measurement": "inhibition at 100 µM", "setting": "human TRPA1; [2]", "result": 27.1, "unit": "%"}
    ]},
    {"compound": "OCc1ccccc1", "note": "[benzyl alcohol, reference compound]", "values": [
      {"measurement": "TRPA1 activation caused by antiseptics and antiseptic aids", "setting": "human TRPA1", "result": "activate TRPA1 in a dose dependent manner"}
    ]},
    {"compound": "Oc1cc(Cl)ccc1Oc1ccc(Cl)cc1Cl", "note": "[triclosan, reference compound]", "values": [
      {"measurement": "TRPA1 activation caused by antiseptics and antiseptic aids", "setting": "human TRPA1", "result": "activate TRPA1 in a dose dependent manner"}
    ]},
    {"compound": "d-camphor [reference compound]", "values": [
      {"measurement": "Ratio for TRPA1 inhibition (%)", "setting": "human TRPA1; 5.0 μM AITC, test material 100 μM", "result": 1.8, "unit": "%"},
      {"measurement": "Ratio for TRPA1 inhibition (%)", "setting": "human TRPA1; 5.0 μM AITC, test material 500 μM", "result": 27.8, "unit": "%"},
      {"measurement": "Ratio for TRPA1 inhibition (%)", "setting": "human TRPA1; 10 μM AITC, test material 100 μM", "result": 0.0, "unit": "%"},
      {"measurement": "Ratio for TRPA1 inhibition (%)", "setting": "human TRPA1; 10 μM AITC, test material 500 μM", "result": 15.1, "unit": "%"},
      {"measurement": "Ratio for TRPA1 inhibition (%)", "setting": "human TRPA1; 30 μM AITC, test material 0.01%", "result": 6.9, "unit": "%"},
      {"measurement": "Ratio for TRPA1 inhibition (%)", "setting": "human TRPA1; 30 μM AITC, test material 0.03%", "result": 89.7, "unit": "%"},
      {"measurement": "Ratio for TRPA1 inhibition (%)", "setting": "human TRPA1; stimulant Benzyl alcohol 20 mM, test material 0.5 mM", "result": "−0.89", "unit": "%"},
      {"measurement": "Ratio for TRPA1 inhibition (%)", "setting": "human TRPA1; stimulant IPBC 0.03 mM, test material 0.5 mM", "result": 32.40, "unit": "%"},
      {"measurement": "Ratio for TRPA1 inhibition (%)", "setting": "human TRPA1; stimulant Phenoxyethanol 20 mM, test material 0.5 mM", "result": 13.96, "unit": "%"},
      {"measurement": "Ratio for TRPA1 inhibition (%)", "setting": "human TRPA1; stimulant Triclosan 0.1 mM, test material 0.5 mM", "result": 27.45, "unit": "%"}
    ]}
  ]
}
